Values of other authors as cited in US20240052003A1, “COMPOSITIONS COMPRISING PEDF-DERIVED SHORT PEPTIDES (PDSP) AND USES THEREOF” (BRIM Biotechnology, Inc., priority 2019, published 2024).

Tested on: eye
Settings: ocular application

## NC(=O)c1cccnc1 [nicotinamide]
  Eye irritation: may cause eye irritation
